Source: patent US7195890B2, “Methods and compositions for modulating proteins modified in preconditioning against ischemia/hypoxia” (Queen's University at Kingston, priority 2003, dated 2007)

Tested on: rabbit ventricular myocytes
Experiment: Two-dimensional gel electrophoresis proteomic analysis of protein modifications in pharmacologically preconditioned isolated ventricular myocytes
Format: cell-based
Conditions: 100 μmol/L, 60 minutes, 37° C.; for level of ADP ribosyl hydrolase: drug treated extracts relative to matching control extracts
Excerpt: Protein modifications occurring during preconditioning were identified by a multi-tiered two-dimensional gel electrophoresis approach (see FIG. 3) and subsequent analysis of the cytoplasmic and TFA extracts of adenosine and diazoxide-treated isolated cardiomyocytes (n=4) at concentrations capable of invoking preconditioning. […] The modified proteins identified herein are referred to as preconditioning proteins. Ventricular myocytes from New Zealand White rabbits (weighing 1 to 2 kg) were isolated by collagenase dissociation, as described previously by Liu et al. (Circ. Res. 1996 78:443–454). Hearts were excised, then perfused with collagenase (1.0 mg/mL, Worthington type II) for 14 minutes at a maintained perfusion pressure of 75 mm Hg on a Langendorff apparatus, yielding>50% Ca^2+-tolerant ventricular myocytes. Cell isolation was followed directly by pharmacological preconditioning, which was carried out by treatment with 100 μmol/L adenosine (Sigma) or with 100 μmol/L diazoxide (Sigma) for 60 minutes in a 37° C. water bath, as described previously by Liu et al. supra. Untreated cells were prepared concurrently as drug-free controls. Equivalent 25 μL aliquots of cells (containing ˜30 mg/mL of protein as determined by Lowry assay (Lowry, O. H. J. Biol. Chem. 1951 193:265–275) were frozen and stored at −80° C. until analysis. All steps in this Protein extraction protocol, referred to herein as “In Sequence” and depicted in FIG. 3, produce physiological pH (cytosolic) and acidic pH enriched extracts were carried out at 4° C., and all centrifugations were conducted at 16000×g for 2 minutes at 4° C. Myocyte proteins were first extracted by two rounds of homogenization in 100 μL of HEPES extraction buffer, consisting of (in mmol/L) HEPES 25 (pH 7.4), NaF 50, Na3VO4 0.25, phenylmethylsulfonyl fluoride 0.25, EDTA 0.5, and (in μmol/L) leupeptin 1.25, pepstatin A 1.25. Following homogenization and centrifugation, the supernatants were pooled and saved as the cytosolic extract. The remaining pellet was subjected to further extraction by two rounds of homogenization in 50 μL of acid extraction buffer, consisting of 1% v/v trifluoroacetic acid (TFA) and 1 mmol/L Tris(2-carboxyethylphosphine)hydrochloride (pH ˜2.0). Supernatants were again pooled, and saved as the acid extract. The two extracts and remaining pellet were frozen and stored at −80° C. Isoelectric focusing (IEF) of cytosolic and TFA extracts were carried out using a Protean® IEF cell (Bio-Rad) according to the manufacturer's protocol. Protein loads ranging from 5 up to 250 μg per gel were added to the following rehydration buffers: for cytosolic extracts, 8 M urea, 2.5 M thiourea, 4% CHAPS, 2 mM EDTA, and 25 mM DTT, and in the case of pH 6–9 strips, CHAPS and DTT were substituted by 4% ASB-14 and 5.4% (w/v) 2-hydroxyethyl disulfide, respectively; for acidic extracts, 8 M urea, 4% CHAPS, and 25 mM DTT. Immobilized pH gradient (IPG) Ready Strips™ (170 mm pH 4–7, 6–9, or 3–10 linear gradient, Bio-Rad) were actively rehydrated at 50 volts (V) for 10 hours to enhance protein uptake, then subjected to the following conditions using a rapid voltage ramping method: 100 V for 25 Volt-hours (Vh), 500 V for 125 Vh, 1000 V for 250 Vh, and 8000 V for 65 kVh. A Peltier temperature control platform maintained gels at 20° C. throughout IEF. Focused gels were stored at −20° C. prior to sodium dodecyl sulfate-polyacrylamide gel electrophoresis (SDS-PAGE). For SDS-PAGE, IPG strips were incubated for 10 minutes in equilibration buffer (50 mmol/L Tris-HCl, pH 8.8, 6 mol/L urea, 30% v/v glycerol, 2% w/v SDS) supplemented with 10 mg/mL DTT, followed by a 10 minute incubation in equilibration buffer supplemented with 25 mg/mL iodoacetamide, then rinsed once with SDS-PAGE buffer (25 mmol/L Tris, 192 mmol/L glycine, pH 8.3, 0.1% w/v SDS). IEF strips were then embedded in a 5% acrylamide stacking gel and the proteins were resolved by 10 or 12.5% SDS-PAGE using a Protean® II XL system (Bio-Rad). […]

[1] = 2-D gels vs untreated control myocytes, n=4

SMILES	level of 24 kDa subunit (mitochondrial precursor) of Complex I [1]	level of 30 kDa subunit (mitochondrial precursor) of Complex I [1]	level of HSP27 [1]	level of NG-dimethylarginine dimethylaminohydrolase (DDAH) [1]	level of RNA binding protein regulatory subunit (DJ-1) [1]	level of aldehyde dehydrogenase [1]	level of core protein I of Complex III [1]	level of isocitrate dehydrogenase NAD+ specific subunit alpha (IDH) [1]	level of metaxin 2 [1]	level of prohibitin [1]	level of succinyl CoA ligase [ADP forming] beta chain [1]	level of δ chain (mitochondrial precursor) of the F1 portion of Complex V [1]	extent of post-translational modification of the β chain of F1 portion (mitochondrial precursor) of Complex V (2-D gels, silver stain or western blot, vs control, two additional more acidic spots)	level of ADP ribosyl hydrolase	level of 23 kDa subunit (mitochondrial precursor) of Complex I [1]	level of d chain (mitochondrial precursor) of the F0 portion of Complex V [1]	level of dihydrolipoamide succinyltransferase [1]	post-translational modification of protein X (E3 binding protein of the pyruvate dehydrogenase complex) [1]	sarcalumenin (58 kDa isoform) levels (HEPES extract, 2-D gels vs untreated control myocytes)
Nc1ncnc2c1ncn2[C@@H]1O[C@H](CO)[C@@H](O)[C@H]1O [adenosine]	increases	increases	did not, however, observe a change	decreases	increased	increased	decreased	increase	reduced	increase	increase	increases	increase	increased	–	–	–	–	–
CC1=NS(=O)(=O)c2cc(Cl)ccc2N1 [diazoxide]	increased	increased	increase	increased	increased	increased	decreased	increases	reduced	–	–	increased	–	increased	increased	increased	decrease	increases	decrease
